For the experiment, the species on record is Rattus norvegicus. The experiment can be described thus: Percent control measured by evaluating the inhibition of 3 nM [125I]PhTX-343-lysine binding to glutamate receptors in rat cortical membranes. The experiment is classed as cell membranes. Also noted: scale not given: the % may be the effect or the level left. As to conditions: Membrane.

The molecule `O=[N+]([O-])c1cc2nc(O)c(O)nc2cc1[N+](=O)[O-]` displayed an Activity of 102%. In the case of `CNC(CCC(=O)O)C(=O)O` (stereo unspecified) it was 96%. With `N[C@@H](CCC(=O)O)C(=O)O`, the Activity came out at 99%. `NCC(=O)O`: the Activity turned out to be 109%. The result for `C[C@]12N[C@H](Cc3ccccc31)c1ccccc12` reads 92%; that for `C=C(C)[C@H]1CN[C@H](C(=O)O)[C@H]1CC(=O)O`, 103%; that for `NC(CCCP(=O)(O)O)C(=O)O` (stereo unspecified), 94%. The result for `N[C@@H](Cn1oc(=O)[nH]c1=O)C(=O)O` reads 104%; that for `NCCCNCCCCNCCCN`, 14.4%; that for `CCCC(=O)N[C@@H](Cc1ccc(O)cc1)C(=O)NCCCCNCCCNCCCN`, 32.7%. The result for `c1ccc(C2(N3CCCCC3)CCCCC2)cc1` reads 81%.

Source of the values: ChEMBL document CHEMBL1125606, “Synthesis and binding of [125I2]philanthotoxin-343, [125I2]philanthotoxin-343-lysine, and [125I2]philanthotoxin-343-arginine to rat brain membranes” (J Med Chem, 1991).
